The conditions of data set [1]: oral administration; cited from earlier work.
Data set [2] is described as follows: In vitro skin permeation, Franz cells, frozen human abdominal skin. Particulars: Example 7. It is filed as in vitro ADME. How it is done: Percutaneous absorption was measured using the in vitro cadaver skin finite dose technique. Cryo-preserved, human cadaver trunk skin was obtained from a skin bank and stored in water-impermeable plastic bags at <−70° C. until used.
Briefly, skin samples were prepared as follows.
The dermal cell was filled with receptor solution.
Experiments were performed under non-occlusive conditions.
Analysis of the samples was performed by HPLC.
Twenty-five micro liters of sample were injected.
Formulations 7.1 and 7.3 were made essentially as described above in the Materials and Methods. Formulation 7.1 and 7.2 are identical, but formulation 7.1 was tested on pig ear skin, and formulation 7.2 was tested on frozen human abdominal skin. Formulation 7.3 (Reference marketed product) was also tested on frozen human abdominal skin. Permeation studies used Franz cells as described in the Materials and Methods.
Individual gel amounts applied to tested skin samples were approximately 10 mg. Studies were performed according to OECD (Organization for Economic Cooperation and Development) guidelines (Organization for Economic Co-operation and Development (OECD), Environment Directorate. “Guidance document for the conduct of skin absorption studies,” OECD series on testing and assessment, No. 28. Paris, version 5 Mar. 2004).

For data set [3] the following is noted: in an alcohol/water solvent; cited from earlier work.
For data set [4] the following is noted: cited from earlier work.
Data set [5] in a line: In vitro skin permeation, Franz cells, finite dose, non-occlusive, pig ear skin. Particulars: topical or ocular, 10 mg, pH 7.4.
Method: A finite dose (for example: 4-7 mg/cm^2) of formulation is applied to the outer surface of the skin and drug absorption is measured by monitoring its rate of appearance in the receptor solution bathing the inner surface of the skin. Data defining total absorption, rate of absorption, as well as skin content can be accurately determined in this model.
Pig skin can be prepared essentially as described below for human skin.
Prior to the experiment, skin was removed from the bag, placed in water (approximately 37° C.) for five minutes, and then cut into sections large enough to fit on 1 cm^2 Franz Cells (Crown Glass Co., Somerville, N.J.). Briefly, skin samples were prepared as follows. A small volume of phosphate buffered saline (PBS) was used to cover the bottom of the Petri dishes. Skin disks generally depleted of fat layers were placed in the Petri dishes for hydration. A Stadie-Riggs manual tissue microtome was used for slicing excised skin samples. Approximately 2 mL of PBS was placed into the middle cavity of the microtome as slicing lubricant. Skin disks were placed, dermal side up, into the middle cavity of the microtome. Filter paper was soaked with PBS, inserted in the cavity just above the skin disk. The filter paper prevented the dermis from sliding onto the top of the cutting block and helped to insure more precise cutting. […]

For `NCCCC(O)(P(=O)(O)O)P(=O)(O)O` [sodium alendronate], in data set [1], the “fraction of the drug absorbed when administered orally” value is “about 0.6%”.

As a reminder, the bioavailability is the share of a dose that reaches the circulation, judged against a reference dose that is usually intravenous. As for `CN1CCC[C@H]1c1cccnc1` [nicotine, 1-methyl-2-(3-pyridyl)pyrrolidone], the “change of transdermal in vitro bioavailability, frozen human skin versus fresh pig skin” value in data set [2] (p=0.009) is −52%. In addition, the bioavailability at 16 h, 1.5 % FBE was found to be 18% in data set [2] (topical or ocular, 10 mg, pH 7.4, frozen human skin, gel of Table 13 (formulation 7.2)) and 38% in data set [5]. Besides, the “apparent pKa of nicotine” value in data set [3] is on record as 7.7. Moreover, the Oral bioavailability entry in data set [4] is reported as “about 30%”.
